Experimental data taken from US20240238425A1, “HSD17B13 Inhibitors and/or Degraders” (Pfizer Inc., priority 2022, published 2024).

System: HiBiT-HSD17β13 fusion protein (N-terminal HiBiT-tagged HSD17β13 isoform D) in Huh7 HiBiT-HSD17β13 OE cells
Experiment: Whole-cell Huh7-HSD17B13 HiBiT assay (degrader potency and maximal efficacy, luminescence readout)
Format: cell-based, human
Settings: 24 hour incubation, geometric mean, * = geometric mean for all forms tested (parent and salt forms); for DC50: read-out: Huh7_HIBIT-HSD17β13_DC50 GMean DC50; for Huh7_HIBIT-HSD17β13_DC50 GMean Asymptote Maximum: max. concentration 1 μM
Procedure: Degrader potency and maximal efficacy of test compounds were determined using a whole-cell Huh7-HSD17B13 HiBiT assay, utilizing a luminescence readout. A HiBiT tag was fused to the N-terminus of HSD17β13, and therefore the HiBiT luminescence signal produced in the assay was proportional to the level of HiBiT-HSD17β13 fusion protein in a sample.
A Huh7 HiBiT-HSD17β13 OE cell line was generated using electroporation with an N-terminal HiBiT-tagged HSD17β13 isoform D overexpression plasmid, followed by geneticin selection to produce a stable pool. Clones were created with varying HiBiT signals to optimize HiBiT HSD17 β13 ratios. A clone with similar HSD17β13 expression levels as human primary hepatocytes was selected for the compound screen.
Greiner 384-well white opaque, flat bottom, tissue culture treated plates (Greiner #781080) were used for both HiBiT and CTG assays. The treated plates were spotted with 25 nL of a compound which had been serial diluted 1 in 3.162 in 100% DMSO for an 11-point concentration response curve, with duplicate points at each concentration. The maximum concentration of the compounds was 1 mM, which was later diluted with cell suspension for a maximum concentration of 1 μM). High percentage effect (HPE) wells and zero percentage effect (ZPE) wells located in columns 1 and 24 were spotted with 25 nL of DMSO (Sigma #D2650) using an ECHO Acoustic Liquid Handler (Labcyte Echo 550 Series). Each plate was performed in duplicate.
The Huh7 HiBiT-HSD17β13 OE cells were plated on top of a compound or a DMSO control at 3,000 viable cells/well in 25 μL growth media (DMEM (Gibco #10569), 10% FBS HI (Gibco #16140), 1× Pen/Strep (Gibco #15070), 1×MEM Non-Essential Amino Acids (Gibco #11140), and 300 μg/mL Geneticin (Gibco #10131) in columns 2-24 of the plates. Huh7 parental cells were plated using the same parameters in column 1 (HPE) in the same culture medium, excluding Geneticin selection. Cells were incubated overnight with the compounds for 24 hours (with lid) at 37° C. ([…]).
Each assay was conducted after a 24 hour incubation period. In the HiBiT assay plates, 25 μL of complete Nano-Glo HiBiT Lytic detection system (Promega #PRN3040), consisting of HiBiT Lytic Buffer with the addition of 1:100 LgBiT Protein and 1:50 Substrate, was added to each well. In CTG counter screen plates, 25 μL of Cell Titer-Glo Luminescent Reagent (Promega #G7573) was added to each well. Both plates were centrifuged for 2 minutes at 1000 rpm and incubated at room temperature, in the dark, for 10 minutes. Then Luminescence was read using an EnVision Plate Reader (Perkin Elmer PE2103).
The raw data from the Envision Plate Reader was expressed as relative luminescence units (RLUs) for each well of the assay plates. Using HPE and ZPE controls, the % effect was calculated for each sample well as follows: Percent effect=[(sample RLU−HPE RLU)\(ZPE RLU−HPE RLU)]*100. The percent effect was plotted versus the compound concentration and a 50% degradation ([…]) was determined using a four-parameter logistic dose response equation. The raw data was analyzed using ABase (IDBS).

SMILES	DC50	Huh7_HIBIT-HSD17β13_DC50 GMean Asymptote Maximum
Cl.Cn1c(=O)n(C2CCC(=O)NC2=O)c2ccc(CCCN3Cc4ccc(-c5ccc6cn(C7CCC(CNC(=O)c8cc(F)c(O)c(F)c8F)CC7)nc6c5)cc4C3)cc21 (racemic) [Example 1, N-{[(1r,4r)-4-{6-[2-(3-{1-[(3RS)-2,6-Dioxopiperidin-3-yl]-3-methyl-2-oxo-2,3-dihydro-1H-benzimidazol-5-yl}propyl)-2,3-dihydro-1H-isoindol-5-yl]-2H-indazol-2-yl}cyclohexyl]methyl}-2,3,5-trifluoro-4-hydroxybenzamide, hydrochloride salt]	0.11 nM	87* %
Cn1c(=O)n(C2CCC(=O)NC2=O)c2ccc(CCCN3Cc4ccc(-c5ccc6cn(C7CCC(CNC(=O)c8cc(F)c(O)c(F)c8F)CC7)nc6c5)nc4C3)cc21 (racemic) [Example 2, N-{[(1r,4r)-4-{6-[6-(3-{1-[(3RS)-2,6-Dioxopiperidin-3-yl]-3-methyl-2-oxo-2,3-dihydro-1H-benzimidazol-5-yl}propyl)-6,7-dihydro-5H-pyrrolo[3,4-b]pyridin-2-yl]-2H-indazol-2-yl}cyclohexyl]methyl}-2,3,5-trifluoro-4-hydroxybenzamide]	0.16 nM	83* %
O=C1CCC(N2Cc3c(OCc4ccc(CN5CCN(c6ccc7cn(C8CCC(CNC(=O)c9cc(F)c(O)c(F)c9)CC8)nc7c6)CC5)cc4)cccc3C2=O)C(=O)N1 (racemic) [Example 6, N-{[(1r,4r)-4-{6-[4-({4-[({2-[(3RS)-2,6-Dioxopiperidin-3-yl]-1-oxo-2,3-dihydro-1H-isoindol-4-yl}oxy)methyl]phenyl}methyl)piperazin-1-yl]-2H-indazol-2-yl}cyclohexyl]methyl}-3,5-difluoro-4-hydroxybenzamide]	1.4 nM	76* %

Second part, led by results:

DC50	SMILES	Huh7_HIBIT-HSD17β13_DC50 GMean Asymptote Maximum
0.19 nM	Cl.Cn1c(=O)n(C2CCC(=O)NC2=O)c2ccc(CCCN3CCN(c4nccc(-c5nc(C67CCC(CNC(=O)c8cc(F)c(O)c(F)c8F)(CC6)CC7)no5)n4)CC3)cc21 (racemic) [Example 3, N-{[4-(5-{2-[4-(3-{1-[(3RS)-2,6-Dioxopiperidin-3-yl]-3-methyl-2-oxo-2,3-dihydro-1H-benzimidazol-5-yl}propyl)piperazin-1-yl]pyrimidin-4-yl}-1,2,4-oxadiazol-3-yl)bicyclo[2.2.2]octan-1-yl]methyl}-2,3,5-trifluoro-4-hydroxybenzamide, hydrochloride salt]	84* %
0.38 nM	Cn1c(=O)n(C2CCC(=O)NC2=O)c2ccc(CCCN3CCN(c4nccc(-c5nc(C67CCC(CNC(=O)c8cc(F)c(O)c(F)c8F)(CC6)CC7)cs5)n4)CC3)cc21.O=CO (racemic) [Example 4, N-{[4-(2-{2-[4-(3-{1-[(3RS)-2,6-Dioxopiperidin-3-yl]-3-methyl-2-oxo-2,3-dihydro-1H-benzimidazol-5-yl}propyl)piperazin-1-yl]pyrimidin-4-yl}-1,3-thiazol-4-yl)bicyclo[2.2.2]octan-1-yl]methyl}-2,3,5-trifluoro-4-hydroxybenzamide, formate salt]	84%
0.31 nM	Cn1c(=O)n(C2CCC(=O)NC2=O)c2ccc(CCCN3CCN(c4nccc(-c5csc(C67CCC(CNC(=O)c8cc(F)c(O)c(F)c8F)(CC6)CC7)n5)n4)CC3)cc21 (racemic) [Example 5, N-{[4-(4-{2-[4-(3-{1-[(3RS)-2,6-Dioxopiperidin-3-yl]-3-methyl-2-oxo-2,3-dihydro-1H-benzimidazol-5-yl}propyl)piperazin-1-yl]pyrimidin-4-yl}-1,3-thiazol-2-yl)bicyclo[2.2.2]octan-1-yl]methyl}-2,3,5-trifluoro-4-hydroxybenzamide]	82%
